Experimental data taken from patent publication US20080311656A1, “Meiosis arrest in oocytes in vitro” (Novo Nordisk A/S, priority 2002, published 2008).
Entries after “also recorded” stand apart in the source; their conditions may differ.

How the values were obtained:
[1] = tested on: Human oocytes (COCs); test: Meiosis arrest (nuclear maturation stage GV/GVBD/PB) of COCs cultured with DDMP; format: cell-based; conditions: for oocytes still arrested at the GV-stage: 72 hours in DDMP
Method: (§1) Patients included in this study were undergoing fertility treatment and were primed with variable doses of gonadotropins while being carefully monitored using serum hormone and vaginal ultrasound monitoring (Human Reproduction 7 (1992), 49 et seq.). Collection of oocytes cumulus complexes (COCs) from different follicle sizes was performed as follows: 1°) during laparoscopic surgery, 2°) aspirated from patients with stimulated ovaries undergoing follicle reduction before intrauterine insemination (to avoid multiple gestation due to multiple ovulation) (Albano et al, 2001) or 3°) during ovum pick up after having aspirated the larger follicles (>15 mm) destinated for IVF treatment (Human Reproduction 7 (1992), 49 et seq.). Basically, these aspirations yielded two types of COC: a first group that had never been exposed to LH activity (pre-hCG) and a second group of follicles 36 h after an exposure to hCG (injected) or endogenous LH (spontaneous LH peak). When possible, follicle diameters were recorded by vaginal ultrasound measurement. COCs used in this study were retrieved from follicles with diameters between 6 and 14 mm.
Human oocytes aspiration was performed by ultrasound-guided transvaginal follicle aspiration using a single lumen needle (Cook, K-OPS-1230-VUB, Switzerland AG) after paracervical infiltration with a local anesthetic. The aspiration pressure used was reduced from the usual 100 mmHg for recovery of mature oocytes to 60 mmHg. Follicles were flushed using HEPES-buffered Earle's medium at least three times.
(§2) At the time of oocyte retrieval only the COCs classified as I or II were placed in culture.
Twenty-four hours later, oocyte stages were recorded and oocytes showing a clear polar body extrusion were removed from culture. After 48 hours, all oocytes were assessed and GV, GVBD and polar body extruded ones were recorded.
(§3) The basal medium used for oocyte culture was D-MEM (D-5280, Life Technologies, Merelbeke, Belgium) with 2 mM Glutamax-1, NaHCO3 (2 g/L) supplemented with 10 mIU/ml FSH (Gonal-F®, kindly donated by Ares Serono, Geneva, Switzerland), 100 ng/ml IGF-I (R&D, UK), 5 ng/ml insulin, 5 ng/ml selenium, 5 μg/ml transferrin (Life technologies, Merelbeke, Belgium) and 0.1% human serum albumin (CAF-DCF, Brussels, Belgium). 17β-E2 (Sigma, Bornem, Belgium) was diluted in ethanol and added to oil to reach a final concentration of 1 μg/ml in the 10 μl medium droplets underneath (this concentration was measured using specific radioimmunoassay). Microdroplets of 10 μl medium, were covered with 2 ml of oil. A refreshment of […] conditioned medium was performed each 24 hours. All cultures were carried out at 37° C. in humidified atmosphere in an incubator gassed with 5% CO2 in air.
(§4) DDMP was added at a 10 μM final concentration (0.1% DMSO). Directly after aspiration, single COCs were washed in flushing medium (D-MEM with HEPES) and placed into […] droplets under oil. COCs were randomised over two culture conditions: with and without DDMP. Oocytes cultured with DDMP for 24 hours, 48 hours and 72 hours were studied for reversal of meiosis arrest by washing out the inhibitor. Reversal of PDE 3 inhibition was performed by mechanical denudation of the remaining somatic cells and placing the oocytes in the conditioned medium for an additional 24-30 h.
(§5) Evaluation of cumulus morphology expansion in culture related to follicle treatment, resumption of maturation, kinetics of GVBD and polar body extrusion were analysed using the χ^2test and Fisher's exact test for comparison between control and DDMP treated groups. Statistical significance was considered when P<0.05.

[2] = tested on: cumulus-corona cells of COCs; test: Cumulus cell expansion (COC types I-IV) during culture in the presence of DDMP; format: cell-based, human
Method: as §1
The COCs were evaluated immediately after aspiration and after 24 hours and 48 hours culture and classified as follows: type (I), compact mass of 3-5 layers of granulosa cells; type (II), expanded distal layers of granulosa cells (cumulus), but a compact proximal granulosa cell layer; type (III), expanded distal (cumulus) and proximal (corona cells) layers of granulosa cells; and type (IV) partially denuded oocytes due to expanded granulosa cells.
as §2, §3, §4, §5

[3] = tested on: Human oocytes arrested at GV-stage; test: Reversal of meiosis arrest after washing out the inhibitor; format: cell-based
Method: as §4, with “Reversal of PDE 3 inhibition was performed by mechanical denudation of the remaining somatic cells and placing the oocytes in the conditioned medium for an additional 24-30 h.” left out
as §5

[4] = tested on: Human oocytes (COCs); test: Light and electron microscopy of oocytes arrested by DDMP; format: cell-based
Method: During evaluation at 24 hours and 48 hours culture, part of the oocytes with and without DDMP were fixed for EM analysis.
A total of 48 oocytes (4 at time of retrieval, 21 after 24 hours, 20 after 48 hours and 3 after 72 hours culture) were fixed in glutaraldehyde 2.5% in cacodylate buffer at pH 7.3 for at least 2 hours at 4° C. at time 0 h, 24 hours and 48 hours of maturation. All oocytes were embedded individually. Afterwards, they were postfixed in OsO4 1% in H2O for 30 min, stained with uranyl acetate 2% in veronal buffer for 60 min, dehydrated through graded alcohols, embedded in SPURR (Taab; Bodson, Liège, Belgium) and left to polymerize overnight at 70° C.
Semithin sections of 0.5 μm and ultrathin sections of 75 nm were made at approximately 30 levels (range 15-35). The semithin sections were mounted on glass slides and stained with toluidine blue for light microscopical guidance. […]
In order to analyse the effect of PDE 3 inhibition on nuclear and cytoplasm organization, ultrastructural observation was performed at the different culture times in oocytes arrested or not by DDMP. The oocytes analyzed did originate from follicles with diameter between 8-12 mm.

[5] = tested on: polar body extruded oocytes; test: Confocal laser microscopy for microfilaments and chromosome analysis; format: cell-based, human
Method: For localization of microfilaments, 39 polar body extruded oocytes (25 oocytes 48 hours after maturation in control medium and 14 oocytes after inhibitor removal) were fixed with 2.5% glutaraldehyde in cacodylate buffer for at least 2 hours, washed with PBS/1% BSA, placed into 0.1% Triton X-100 for 5 min and rinsed again with PBS. Afterwards, oocytes were placed into Texas red-labeled phalloidin staining f-actin diluted 1:40 PBS for f-actin and Pico green 1:2000 PBS for DNA staining.

[6] = tested on: isolated oocytes; conditions: rodents; cited from earlier work
[7] = post-hCG COCs, 24 hours culture in DDMP 10 μM
[8] = pre-hCG COCs, 24 hours culture in DDMP 10 μM
[9] = inhibitor removal day 2 (48 hours in DDMP), post-hCG, 11 oocytes
[10] = inhibitor removal day 2 (48 hours in DDMP), pre-hCG, 11 oocytes
[11] = inhibitor removal day 3 (72 hours in DDMP), post-hCG, 10 oocytes
[12] = inhibitor removal day 3 (72 hours in DDMP), pre-hCG, 13 oocytes

SMILES: COc1cc2cc(C3=NNC(=O)CC3C)sc2cc1OC (stereo not shown) [DDMP, 4,5-dihydro-6-(5,6-dimethoxybenzo[b]thien-2-yl)-5-methyl-3(2H)-pyridazinone]
- time up to which nuclear arrest could be held on ([1]; DDMP 10 μM): up to 72 hours
- time for which resumption of meiosis was blocked / meiotic arrest in GV maintained ([1]; DDMP 10 μM, COCs from antral follicles): at least 48 hours
- oocytes remaining at GV-stage ([1]; post-hCG COCs (n=42), 24 hours, DDMP 10 μM, control 22.5%): 92.9%
- COCs classified type II at retrieval that remained arrested at the GV-stage ([1]; post-hCG COCs of type II at retrieval, 48 hours culture with DDMP): 77.6%
- oocytes that extruded a visible polar body (PB) ([1]; post-hCG COCs, 24 hours, DDMP 10 μM, control 10.0%): 2.4%
- oocytes at the GV-stage ([1]; post-hCG COCs, 48 hours, DDMP 10 μM, control 6.0%): 83.3%
- oocytes at GVBD ([1]; post-hCG COCs, 48 hours, DDMP 10 μM, control 12.1%): 8.3%
- oocytes at PB ([1]; post-hCG COCs, 48 hours, DDMP 10 μM, control 81.8%): 5.6%
- oocytes still arrested at the GV-stage ([1]; post-hCG, 10 out of 15): 66.6%
- oocytes remaining at GV-stage ([1]; pre-hCG COCs (n=39), 24 hours, DDMP 10 μM, control 24.3%): all oocytes remained at GV-stage
- oocytes at GVBD ([1]; pre-hCG COCs, 48 hours, DDMP 10 μM, control 12.9%): 5.5%
- oocytes remaining at GV-stage ([1]; pre-hCG COCs, 48 hours, DDMP 10 μM, control 19.3%): 88.9%
- oocytes at PB ([1]; pre-hCG COCs, 48 hours, DDMP 10 μM, control 64.5%): 2.8%
- oocytes still arrested at the GV-stage ([1]; pre-hCG, 16 out of 19): 84.2%
- influence on expansion and mucification pattern of COC / loss of coupling between somatic cells and oocyte ([2]; DDMP 10 μM versus control medium, before and during culture): not modified; also recorded: no influence
- proportion of COCs classified type I ([2]; post-hCG COCs of the DDMP group, at retrieval (0 hour, baseline)): 48.8%
- oocytes that had lost connection with cumulus cells (type IV) [2, 7]: 7.1%
- proportion of COCs classified type I [2, 7]: 4.7%
- proportion of COCs classified type II [2, 7]: 57.1%
- proportion of COCs classified type III [2, 7]: 30.9%
- oocytes that had lost connections with the somatic cells (type IV) ([2]; post-hCG COCs, 48 hours culture in DDMP 10 μM): 62.1%
- proportion of COCs classified type I ([2]; pre-hCG COCs of the DDMP group, at retrieval (0 hour, baseline)): 74.4%
- proportion of COCs classified type I [2, 8]: 25.6%
- proportion of COCs classified type II [2, 8]: 56.4%
- proportion of COCs classified type III [2, 8]: 15.4%
- oocytes that had lost their connections with the cumulus cells (type IV) ([2]; pre-hCG COCs, 48 hours culture in DDMP 10 μM): 22.2%
- number of oocytes that progressed to GVBD after inhibitor wash-out ([3]; 48 hours in DDMP, post-hCG, 11 oocytes, 24-30 h in control medium): 11
- number of oocytes that progressed to GVBD after inhibitor wash-out ([3]; 48 hours in DDMP, pre-hCG, 11 oocytes, 24-30 h in control medium): 4
- number of oocytes that progressed to GVBD after inhibitor wash-out ([3]; 72 hours in DDMP, pre-hCG, 13 oocytes, 24 to 30 hours in conditioned medium): 7
- PB (%) 24-30 hours after DDMP removal [3, 9]: 54%
- number of oocytes at GVBD (arrested at this stage) 24-30 hours after DDMP removal [3, 9]: 5
- number of oocytes at PB 24-30 hours after DDMP removal [3, 9]: 6
- PB (%) 24-30 hours after DDMP removal [3, 10]: 27%
- number of oocytes at GV 24-30 hours after DDMP removal [3, 10]: 7
- number of oocytes at GVBD (arrested at this stage) 24-30 hours after DDMP removal [3, 10]: 1
- number of oocytes at PB 24-30 hours after DDMP removal [3, 10]: 3
- PB (%) 24-30 hours after DDMP removal [3, 11]: 100%
- number of oocytes at PB 24-30 hours after DDMP removal [3, 11]: 10
- PB (%) 24-30 hours after DDMP removal [3, 12]: 46%
- number of oocytes at GV 24-30 hours after DDMP removal [3, 12]: 6
- number of oocytes at GVBD (arrested at this stage) 24-30 hours after DDMP removal [3, 12]: 1
- number of oocytes at PB 24-30 hours after DDMP removal [3, 12]: 6
- resumption of meiosis after inhibitor removal ([3]; oocytes arrested with DDMP 10 μM): capable of resuming meiosis within the normal time frame
- ultrastructural morphological signs of oocyte degeneration ([4]; DDMP 10 μM, at least 48 hours culture): without ultrastructural morphological signs of oocyte degeneration
- morphological aspect of COC (degeneration) ([4]; arrested in vitro for 72 hours in presence of DDMP (FIG. 11)): degenerative aspect
- number of oocytes presenting the M II plate 24-30 hours after inhibitor removal ([5]; 3 out of 3 pre-hCG and 9 out of 11 post-hCG): Twelve
- number of oocytes with nuclei forming a clump of chromosomes at place of metaphase plate ([5]; 24-30 hours after inhibitor removal): Two
- M II oocytes with well-aligned chromosomes positioned perpendicular to the oolema ([5]; 24-30 hours after inhibitor removal, control 80.0%): 83.3%
- reversibility of blocking effects [6]: fully reversible
